# Assay results published in US11104805B2, “High-saturation scarlet color dye ink for high-speed inkjet process” (KOREA INSTITUE OF INDUSTRIAL TECHNOLOGY, priority 2018, dated 2021).
# “Also recorded” adds a separate entry of the source.
# Legend:
# [1] = UV-Vis absorption spectra of dyes in water; format: physicochemical; settings: 10^−5 M in water
# Excerpt: The UV-Vis absorption spectra of the dyes 1b to 3b measured at 10^−5 M in water are illustrated in FIG. 2, and corresponding data are shown in Table 1 below. […] When the water solubility of the dye increases, the probability of being present as a single molecule increases, and thus the color developability of each dye molecule is increased, resulting in increased color intensity.
# In addition, an absorption peak form having two absorption maxima appeared. This is because a single molecule and aggregated molecules have different absorption maxima. Generally, as the concentration becomes lower, the probability of being present as a single molecule increases, and as the concentration increases, the tendency to aggregate becomes stronger, and thus one peak appears at each maximum, but it was confirmed from this experiment that since the two cases were present at a measurement concentration of 10 μM, absorption peaks appeared separately.
# Water solubility of dyes = format: physicochemical
# [2] = Light stability: relative absorbance over time under light irradiation
# Method: An absorbance value before light irradiation was set to 1 and relative absorbance values over time were measured.
# [3] = Thermal stability by TGA under N2 atmosphere; format: physicochemical
# Excerpt: The thermal stability of each sample was investigated by a TGA method under an N2 atmosphere.
εmax ([1]; at first (or only) absorption maximum) [L/mol/cm],"λmax (nm) (after 1,200 min) ([1]; first (or only) absorption maximum)","shift of absorption maxima after final light irradiation ([2]; 1,200 minutes)","relative absorbance after final light irradiation ([2]; 1,200 minutes, absorbance before irradiation set to 1)","λmax (nm) (after 1200 min) ([2]; after 1200 min light irradiation, first (or only) maximum)","λmax (nm) ([2]; before light irradiation, first (or only) maximum)",K (photodegradation rate constant) ([2]; light irradiation) [min⁻¹],Td (degradation temperature) [3] [°C],Structure (SMILES),water solubility compared with the synthesized perylene dyes (1b to 3b) (Water solubility of dyes; comparison in words),water solubility (Water solubility of dyes; in water) [wt %]
23000,521,about 4 nm,about 0.5,(→ 506) nm,502,0.0004945,291,O=S(=O)([O-])c1ccc2c(N=Nc3ccc(S(=O)(=O)[O-])c4ccccc34)c(O)c(S(=O)(=O)[O-])cc2c1.[Na+].[Na+].[Na+] [Acid red 27],poorer water solubility; also recorded: deteriorated solubility,
,,,,,,,,"O=C1c2ccc3c4c(S(=O)(=O)O)cc5c6c(ccc(c7c(S(=O)(=O)O)cc(c2c37)C(=O)N1c1ccc(S(=O)(=O)O)cc1)c64)C(=O)N(c1ccc(S(=O)(=O)O)cc1)C5=O [Dye 3b, N,N′-bis[4-(sulfuric acid)phenyl]-1,7-(disulfuric acid)perylene-3,4,9,10-tetra carboxydiimide]",,≥ 20
